From patent US20090088364A1, “Pharmaceutical composition useful for the treatment of invasive pulmonary aspergillosis” (priority 2004, published 2009)
“Also recorded” adds a separate entry of the source.

Experiments:
[1] = system: A. fumigatus; experiment: Fungal hyphae density in lung sections (histopathology) of IPA mice; assay type: in vivo, BALB/c mice; conditions: for fungal hyphae density compared to untreated IPA mice: FIG. 3, histopathology of lung sections
Source text: (§1) The survival rates of the MBL treated and untreated mice were monitored for 15 days (FIG. 1). Among the rest of the mice left in each group, two mice were sacrificed each on 4th and 7th day after fungal exposure and lung tissues were collected for histopathology and counting the colony forming units of the fungus (CFUs). For estimating the pulmonary fungal load and hyphae density of the mice, lungs were aseptically removed from each group of mice sacrificed on the 4th and 7th day, after the spore challenge. A portion of the lung tissue (10 mg) was homogenized with a mechanical homogenizer for 1 min in sterile PBS. The suspension was serially diluted 2-fold and incubated in triplicates on Sabouraud Agar (SDA) plates at 37° C. A. fumigatus colonies were counted after 24 hrs incubation and the values represent average±standard deviation of six data points (three from each dilution). The number of Colony forming units (CFUs) that appeared on the plates corresponds to the pulmonary fungal load of different groups. […] The other portion of the lung was kept in 10% formalin for histopathological studies of the lung sections.
For visualization of the fungal hyphae in the lungs of the mice, a portion of the lungs collected from the mice sacrificed on 4th and 7th day from treated and untreated groups after spore challenge and trimmed of extraneous tissue was kept in 10% formalin for histopathological studies and stored at 4° C. The tissue sections, made using a microtome and stained with hematoxylin and eosin, were examined at the magnification of 40×.

[2] = system: A. fumigatus; experiment: Survival of immunosuppressed IPA mice monitored for 15 days; assay type: in vivo, BALB/c mice; conditions: for survival / survival rate: IPA mice
Experimental: For preparation of animal models of invasive pulmonary aspergillosis, BALB/c mice were divided into various experimental and control groups and subgroups as shown in Table I.
The BALB/c mice were immunosuppressed by three intradermal injections of 2.5 mg of hydrocortisone acetate (Wycort) per 20 g mouse per day 1 day before, the day of, and the day after spore challenge.
On the day of spore challenge (day 0), mice were lightly anesthesized with ether and 10^8 spores of A. fumigatus in 50 μl of sterile saline were administered intranasally in the groups of IPA mice, while 50 μl of saline alone was administered to the untreated control mice. The MBL-treated control and IPA mice received 1 μg of MBL in 50 μl of saline per mouse on day 1, and the groups of untreated control and untreated IPA mice received 50 μl of saline alone intranasally on day 1.
as §1
The animal model of invasive pulmonary aspergillosis is prepared by known methods of the immunosuppression of the mice (Allen et al, 1994) followed by exposure to A. fumigatus spores. The mice were immunosuppressed by three intradermal injections of 2.5 mg of hydrocortisone acetate (Wycort) per 20 g of mouse per day one day before, the day of, and the day after spore challenge (day −1, 0, +1).
On the day of spore challenge (day 0), mice were lightly anesthesized with ether and 10^8 spores of A. fumigatus in 50 μl of sterile saline were administered intranasally in the groups of IPA mice, while 50 μl of saline alone was administered to the untreated control mice.
The administration of different concentrations of purified human rMBL (1-5 µg/mice) in saline intranasally to different groups of mice is described in Table I. The animal models of invasive pulmonary aspergillosis and their respective controls were given treatment with rMBL and amphotericin B. The amphotericin B treated mice acted as the positive control, since amphotericin B is a standard known antifungal agent.
(§2) The 1 µg rMBL-treated control and IPA mice received 1 μg of rMBL in 50 μl of saline per mouse on day 1. Similarly, 3 μg rMBL-treated control and IPA mice received 3 μg of rMBL in 50 μl of saline per mouse on day 1 and 5 µg rMBL-treated control and IPA mice received 5 μg of rMBL in 50 μl of saline per mouse on day 1. The AmB-treated control and IPA mice received AmB (134.6 μg) only on day 1. The groups of untreated control and untreated IPA mice received 50 μl of saline without rMBL intranasally on day 1.
(§3) Different groups of mice were monitored for 15 days for survival and thereby their survival rate was calculated.

[3] = system: A. fumigatus; experiment: Pulmonary fungal load (CFU counts in lung homogenate) in IPA mice; assay type: in vivo, BALB/c mice; conditions: for fungal load: description
Source text: as §1
For estimating the pulmonary fungal load and hyphae density of the mice, lungs were aseptically removed from each group of mice sacrificed on the 4th and 7th day, after the spore challenge. A portion of the lung tissue (10 mg) was homogenized with a mechanical homogenizer for 1 min in sterile PBS. The suspension was serially diluted 2-fold and incubated in triplicate on Sabauraud Agar (SDA) plates at 37° C. A. fumigatus colonies were counted after 24 hrs incubation and the values represent average±standard deviation of six data points (three from each dilution). The number of Colony forming units (CFUs) that appeared on the plates corresponds to the pulmonary fungal load of different groups.

[4] = system: A. fumigatus conidia; conditions: in vitro, purified human MBL; cited from earlier work
[5] = Survival of immunosuppressed control mice that received no spores; assay type: in vivo, BALB/c mice
Experimental: as §2, §3

[6] = Example 6, PBS pH 7.2, rMBL 1-5 μg/mice
[7] = Example 8, TBS pH 7.6, rMBL 1-5 μg/mice
[8] = Example 9, TBS pH 8.0, rMBL 1-5 ug/mice
[9] = Example 6, PBS pH 7.2, treated with AmB or rMBL
[10] = Example 7, PBS pH 7.4, treated with AmB or rMBL
[11] = Example 8, TBS pH 7.6, treated with AmB or rMBL
[12] = Example 9, TBS pH 8.0, treated with AmB or rMBL

Compound: rMBL: purified human recombinant mannan-binding lectin (MBL) protein, in solution form produced by recombinant technology
- fungal hyphae density in the lungs compared to untreated IPA mice ([1]; Example 6, PBS pH 7.2): decrease
- fungal hyphae density in the lungs compared to untreated IPA mice ([1]; Example 7, PBS pH 7.4, FIG. 3): decrease
- fungal hyphae density in the lungs compared to untreated IPA mice ([1]; Example 8, TBS pH 7.6): decrease
- fungal hyphae density in the lungs compared to untreated IPA mice ([1]; Example 9, TBS pH 8.0): decrease
- fungal hyphae density compared to untreated IPA mice ([1]; listed as MBL): decreases; also recorded: drastic decrease
- survival ([2]; Example 6, PBS pH 7.2, 1 μg rMBL intranasally day 1): 80%
- survival ([2]; Example 6, PBS pH 7.2, 3 μg rMBL intranasally day 1): 80%
- survival ([2]; Example 6, PBS pH 7.2, 5 μg rMBL intranasally day 1): 40%
- percentage of survival, change in treated IPA mice [2, 6]: increase
- survival ([2]; Example 7, PBS pH 7.4, 1 μg rMBL intranasally day 1): 80%
- survival ([2]; Example 7, PBS pH 7.4, 5 μg rMBL intranasally day 1): 40%
- percentage of survival, change in treated IPA mice ([2]; Example 7, PBS pH 7.4, rMBL 1-5 μg/mice, FIG. 1): increase
- survival ([2]; Example 8, TBS pH 7.6, 1 μg rMBL intranasally day 1): 80%
- survival ([2]; Example 8, TBS pH 7.6, 5 μg rMBL intranasally day 1): 40%
- percentage of survival, change in treated IPA mice [2, 7]: increase
- survival ([2]; Example 9, TBS pH 8.0, 1 μg rMBL intranasally day 1): 80%
- survival ([2]; Example 9, TBS pH 8.0, 5 μg rMBL intranasally day 1): 40%
- percentage of survival, change in treated IPA mice [2, 8]: increase
- survival rate ([2]; FIG. 1, 1 µg MBL intranasally on day 1): 80%
- survival rate ([2]; FIG. 1, 3 µg MBL intranasally on day 1): 80%
- pulmonary fungal load compared to untreated IPA mice [3, 6]: reduction
- CFUs in the lung homogenates ([3]; Example 7, PBS pH 7.4, 4th day after spore challenge, 1 μg rMBL): 4.6±0.5 CFUs×10^6/gm of lung tissue
- CFUs in the lung homogenates ([3]; Example 7, PBS pH 7.4, 4th day after spore challenge, 3 μg rMBL): 4.2±0.4 CFUs×10^6/gm of lung tissue
- CFUs in the lung homogenates ([3]; Example 7, PBS pH 7.4, 4th day after spore challenge, 5 μg rMBL): 6.4±0.5 CFUs×10^6/gm of lung tissue
- pulmonary fungal load compared to untreated IPA mice ([3]; Example 7, PBS pH 7.4, rMBL 1-5 μg/mice): reduction
- pulmonary fungal load compared to untreated IPA mice [3, 7]: reduction
- pulmonary fungal load compared to untreated IPA mice [3, 8]: reduction
- pulmonary fungal load, CFU counts ([3]; FIG. 2, 4th day after spore challenge, 3 µg MBL treated IPA mice): 4.2±0.4 CFU counts per gram of the lung tissue
- fungal load ([3]; FIG. 2, 1 µg MBL treated IPA mice): 4.6±0.5 CFUs×10^6/gm of lung tissue
- fungal load ([3]; FIG. 2, 3 µg MBL treated IPA mice): 4.2±0.4 CFUs×10^6/gm of lung tissue
- concentration range that most effectively mediates the killing of the fungus [4]: 1 to 5 µg/mL
- survival of control mice [5, 9]: 100%
- survival of control mice [5, 10]: 100%
- survival of control mice [5, 11]: 100%
- survival of control mice [5, 12]: 100%

Compound: C[C@@H]1[C@H](O)[C@@H](C)/C=C/C=C/C=C/C=C/C=C/C=C/C=C/[C@H](O[C@@H]2O[C@H](C)[C@@H](O)[C@H](N)[C@@H]2O)C[C@@H]2O[C@](O)(C[C@@H](O)C[C@@H](O)[C@H](O)CC[C@@H](O)C[C@@H](O)CC(=O)O[C@H]1C)C[C@H](O)[C@H]2C(=O)O [AmB, Amphotericin B, reference compound]
- fungal hyphae density compared to untreated IPA mice [1]: decreases; also recorded: drastic decrease
- survival ([2]; Example 6, PBS pH 7.2, AmB 134.6 μg on day 1): 80%
- survival ([2]; Example 7, PBS pH 7.4, AmB 134.6 μg on day 1): 80%
- survival ([2]; Example 8, TBS pH 7.6, AmB 134.6 μg on day 1): 80%
- survival ([2]; Example 9, TBS pH 8.0, AmB 134.6 μg on day 1): 80%
- survival rate ([2]; FIG. 1, amphotericin B (134.6 μg) on day 1): 80%
- CFUs in the lung homogenates ([3]; Example 7, PBS pH 7.4, 4th day after spore challenge, AmB 134.6 μg): 5.65±0.07 CFUs×10^6/gm of lung tissue
- fungal load ([3]; FIG. 2, amphotericin B treated IPA mice): 5.65±0.07 CFUs×10^6/gm of lung tissue
- survival of control mice [5, 9]: 100%
- survival of control mice [5, 10]: 100%
- survival of control mice [5, 11]: 100%
- survival of control mice [5, 12]: 100%
